Reference: publication PMC10490226, “Synthesis, Characterization, and Anticancer Activity of New N,N′-Diarylthiourea Derivative against Breast Cancer Cells” (Molecules, 2023)

Assays:
[1] = tested on: breast cancer cells; set-up: method as in doi:10.31788/RJC.2022.1536976; conditions: read-out: IC50 concentration against the viability of breast cancer cells; cited from earlier work
[2] = tested on: MCF-7 cells; assay: MTT cytotoxicity test on MCF-7 cells; format: cell-based; conditions: Homo sapiens; for IC50: MCF7, 24 h, MTT, 24 h incubation, doses 50 to 1000 µM, mean of three, read-out: IC50 concentration, 50% inhibition of MCF-7 cell viability; for viability at 50 µM / viability at 100 µM / viability at 150 µM / viability at 300 µM / viability at 600 µM / viability at 1000 µM: MCF7, 24 h, read-out: Cell Viability %; for viability at 50 µM: MCF-7, dose 50 µM; for viability at 100 µM: MCF-7, dose 100 µM; for viability at 150 µM: MCF-7, dose 150 µM; for viability at 300 µM: MCF-7, dose 300 µM; for viability at 600 µM: MCF-7, dose 600 µM; for viability at 1000 µM: MCF-7, dose 1000 µM
Protocol: (§1) The human cells that were utilized in the study included breast cancer cells, specifically the MCF-7 cell lines, along with normal lung cells, specifically the WI38 cell lines. These cell lines were taken from the American Type Culture Collection (ATCC). These cells were maintained in RPMI media with penicillin (100 U/mL), glutamine, 10% fetal bovine serum, and streptomycin ([…]) in a humidified incubator (5% CO2, 37 °C).
As indicated before, the prepared compounds (1–6) were tested for their capacity to inhibit the growth of MCF-7 cancer cells, employing the MTT experiment. In short, 1 × 10^5 of MCF-7 cells/mL were seeded into each well of a 96-well plate and cultured in the growth mixture at 37 °C overnight. The MCF-7 cells were then exposed to the test compounds at 37 °C for 24 h at doses that ranged from 50 to 1000 µM.
The cells were then observed under an inverted microscope (Leica DMI3000B, Mannheim, Germany) for toxicity markers in both the control and treated cells. Following this, the cells were subjected to MTT solution, which caused MTT to be converted into formazan (MTT’s metabolic product), the amount of which was directly proportionate to the total number of viable cells. The formazan crystal was then extracted from the cells by treating them with dimethyl sulfoxide. Microplate reader (Bio-Rad, Hercules, CA, USA) readings were taken at 570 nm, and the percentage of live MCF-7 cells was calculated using the following Formula (1) to indicate the influence of the studied compounds on the proliferation of the tested cells. Cell viability % = (Abs. of tested compound − Abs. of blank)/(Abs. of control − Abs. of blank) × 100 (1)
(§2) The half-suppressing dose (IC50) of the tested compounds was estimated via a dose-response curve following incubation for 24 h. To further determine whether the compounds were safe for use on living tissues, the MTT technique was used at concentrations ranging from 50 to 1000 µM to analyze the influence of the compounds on the viability of healthy WI38 cells. Results are presented as the mean of three independent evaluations of each value.

[3] = tested on: cleaved caspase-3 (activated caspase-3); assay: ELISA quantification of active (cleaved) caspase-3 in MCF-7 cells; format: cell-based, human; conditions: MCF-7, IC50 dose (338.33 µM), p < 0.001, result in words
Protocol: The expression levels of the human active caspase-3 protein when cleaved at Asp175/Ser176 were measured in compound 4-treated MCF-7 cells, using an ELISA method (Invitrogen, Waltham, MA, USA, Catalog # KHO1091). In a nutshell, after incubating the tested compound 4 with MCF-7 cell cultures for 2 h, the supernatant (100 μL) was plated into a 96-well ELISA plate, and the resulting pellets were discarded. Each well was then suspended with 100 μL of a caspase-3 (active) antibody detection solution and left to incubate at room temperature for 1 h. The solution was then decanted from the wells and rinsed four times. Furthermore, HRP-Anti-Rabbit Antibody solution (100 µL) was added to each well, and the plate was incubated for 30 min at room temperature. A stabilized chromogen substrate (100 µL) was transferred to each well, and the plate was allowed to incubate for 30 min at room temperature, in darkness. At 450 nm, optical density readings were taken from the tested plate after adding 100 µL of stop solution to each well. Utilizing a standard curve, the quantity of active caspase-3 protein in the treated MCF-7 cells was calculated.

[4] = tested on: MCF-7 cells; assay: Lactate dehydrogenase (LDH) leakage test (ELISA); format: cell-based, human; conditions: untreated control 85.35 ± 4.2 U/L, p < 0.001
Protocol: The levels of the released lactate dehydrogenase enzyme (LDH) in compound 4-treated MCF-7 cells were detected using the double-antibody sandwich ELISA technique (SunRed, Cat. N. 201-28-0094) to further estimate the cytotoxic impact of the tested compound 4 against MCF-7 cells. In brief, the compound 4-treated MCF-7 cancer cells were centrifuged, and 40 µL of the resulted supernatant was added to the tested wells. Following this, LDH-antibody (10 µL) and Streptavidin-HRP (50 µL) were transferred to each well for analysis. Subsequently, the 96-well plate was gently shaken, and incubated for 60 min at 37 °C. Following washing, chromogen solution A (50 µL) and chromogen solution B (50 µL) were transferred to each of the test wells, and the plates were left to incubate at 37 Celsius, out of the light, for 10 min. Next, each well was treated with stop solution (50 µL). Finally, the optical density, OD, for the tested plate was measured at 450 nm. Using the prepared standard curve, the concentration of the released LDH was estimated.

[5] = tested on: wi38 cells; assay: MTT viability test on normal WI38 lung cells; format: cell-based, human
Protocol: as §1, §2

[6] = tested on: MCF-7 cells; assay: DNA fragmentation analysis by comet assay; format: cell-based, human
Protocol: Prior to subjecting the MCF-7 cells to compound 4, they were exposed to a caspase-3 inhibitor (Z-DEVD-FMK) in order to assess the potential involvement of caspase-3 activity in the DNA damage induced by compound 4. The occurrence of DNA damage was assessed in MCF-7 cells treated with compound 4 only (IC50 concentration) and MCF-7 cells that were pretreated with Z-DEVD-FMK (50 μM) for 1 h and then treated with compound 4 (IC50 concentration) for 24 h, utilizing the comet test. Fragmentation causes the broken DNA to be separated from the healthy cellular DNA, generating a comet tail that can be identified under a fluorescence microscope. Comet parameters were calculated using TriTek Comet Score™ software (TriTek Corp., Herndon, VA, USA), following a computerized image analysis system that recorded 100 photographs of randomly shaped comets for each slide. The tail moment and tail DNA, two often-employed markers, were combined for data finding. The Olive tail moment (OTM) has been honed to be the most precise method for assessing DNA damage. In accordance with the following Equation (2), its value can be determined by the tail’s DNA concentration and DNA mobility. OTM = quantity of tail moment × quantity of tail DNA/100(2)

[7] = IC50 concentration 24 h, with caspase-3 inhibitor Z-DEVD-FMK (50 μM, 1 h) pretreatment

Compound | IC50 [1] [µM] | IC50 [2] [µM] | viability at 50 µM [2] [%] | viability at 100 µM [2] [%] | viability at 150 µM [2] [%] | viability at 300 µM [2] [%] | viability at 600 µM [2] [%] | viability at 1000 µM [2] [%] | Cleaved caspase-3 (activated caspase-3) levels versus untreated cells [3] | LDH levels in treated MCF-7 cells [4] [U/L] | IC50 ([5]; Homo sapiens, WI-38, doses 50 to 1000 µM) [µM] | Cytotoxic effects on normal human lung cells (wi38 cells) ([5]; result in words) | % DNA in Tail [6, 7] [%] | Olive Tail Moment (OTM) [6, 7] | Tail Length (PX) [6, 7] [PX] | Tail Moment [6, 7] | Tail Moment ([6]; IC50 concentration, without caspase-3 inhibitor pretreatment, control 0.22 ± 0.02) | Olive Tail Moment (OTM) ([6]; IC50 concentration, without caspase-3 inhibitor pretreatment, control 0.55 ± 0.02) | % DNA in Tail ([6]; IC50 concentration, without caspase-3 inhibitor pretreatment, control 3.11 ± 1.73) [%] | Tail Length (PX) ([6]; IC50 concentration, without caspase-3 inhibitor pretreatment, control 7.52 ± 1.82)
C=CCNC(=S)NC(=O)c1ccc([N+](=O)[O-])cc1 [4-nitrobenzoyl-3-allylthiourea] | 225 |  |  |  |  |  |  |  |  |  |  |  |  |  |  |  |  |  |  | 
CCCCCCOc1ccc(NC(=O)Nc2ccccc2)cc1 [Compound 1, 1-(4-(hexyloxy)phenyl)-3-phenylurea] |  | 726.6 ± 1.29 | 98.6 ± 2.21 | 87.3 ± 1.34 | 80.6 ± 2.76 | 67.2 ± 1.13 | 57.2 ± 2.44 | 36.4 ± 1.34 |  |  |  |  |  |  |  |  |  |  |  | 
CCCCCCCCOc1ccc(NC(=O)Nc2ccccc2)cc1 [Compound 2, 1-(4-(octyloxy)phenyl)-3-phenylurea] |  | 527.2 ± 1.28 | 98.8 ± 2.26 | 88.6 ± 2.22 | 72.2 ± 2.13 | 49.9 ± 1.77 | 38.3 ± 1.97 | 23.3 ± 2.33 |  |  |  |  |  |  |  |  |  |  |  | 
CCCCCCCCCCCCCCCCOc1ccc(NC(=O)Nc2ccccc2)cc1 [Compound 3, 1-(4-(hexadecyloxy)phenyl)-3-phenylurea] |  | 619.7 ± 4.33 | 97.3 ± 2.45 | 93.6 ± 1.82 | 80.7 ± 2.44 | 64.9 ± 1.66 | 56.7 ± 2.55 | 20.9 ± 2.75 |  |  |  |  |  |  |  |  |  |  |  | 
CCCCCCOc1ccc(NC(=S)Nc2ccc(F)cc2)cc1 [Compound 4, 1-(4-fluorophenyl)-3-(4-(hexyloxy)phenyl)thiourea] |  | 338.3 ± 1.52 | 100 ± 2.24 | 90.2 ± 2.78 | 48.1 ± 1.15 | 21.2 ± 1.66 | 18.3 ± 1.92 | 7.28 ± 2.56 | significantly elevated | 521.77 ± 30.8 | 1463 ± 4.78 | no cytotoxic effects | 14.37 ± 1.33 | 1.87 ± 0.34 | 7.13 ± 2.21 | 1.04 ± 0.04 | 1.72 ± 0.05 | 2.38 ± 0.06 | 17.26 ± 2.34 | 6.67 ± 1.94
CCCCCCCCOc1ccc(NC(=S)Nc2ccc(F)cc2)cc1 [Compound 5, 1-(4-fluorophenyl)-3-(4-(octyloxy)phenyl)thiourea] |  | 567.8 ± 4.28 | 98.6 ± 2.53 | 96.5 ± 2.33 | 79.5 ± 1.92 | 62 ± 1.84 | 45.4 ± 2.74 | 18 ± 1.45 |  |  |  |  |  |  |  |  |  |  |  | 
CCCCCCCCCCCCCCCCOc1ccc(NC(=S)Nc2ccc(F)cc2)cc1 [Compound 6, 1-(4-fluorophenyl)-3-(4-(hexadecyloxy)phenyl)thiourea] |  | 711.9 ± 2.5 | 96.4 ± 2.63 | 91.7 ± 2.47 | 84.1 ± 1.83 | 79.2 ± 2.64 | 46.9 ± 2.34 | 36.7 ± 1.66 |  |  |  |  |  |  |  |  |  |  |  | 
